Laboratory results as given in US12545699B2, “Bivalent LECA inhibitors targeting biofilm formation of Pseudomonas aeruginosa” (HELMHOLTZ-ZENTRUM FÜR INFEKTIONSFORSCHUNG GMBH, priority 2019, dated 2026).

What was measured:
[1] = molecular target: T1, LecA (Pseudomonas aeruginosa, UniProt Q05097); assay: competitive binding assay based on fluorescence polarisation (FP)
T1 construct: made in house
Experimental: Binding of ligands to LecA was evaluated in competitive assay based on fluorescence polarisation.

[2] = molecular target: T1, LecA; assay: surface plasmon resonance (SPR) direct binding to immobilised LecA
Experimental: All experiments were performed on a BIACORE X100 instrument (GE Healthcare) at 25° C. and a flow rate of 10 μL min^−1. […] LecA was dissolved in 10 mM sodium acetate pH 4.5 (100 μg mL^−1) and injected over the activated chip surface on channel 2 (contact time of 540 s) until the response of ˜4000 RU was reached. Excess free amine groups were capped with an injection of 1 M ethanolamine (contact time 540 s). Bivalent compounds were dissolved in 100% DMSO and subsequently diluted to required concentrations in a running buffer (10 mM phosphate buffer pH 7.4, 2.7 mM KCl, 137 mM NaCl, 100 μM CaCl2, 0.05% Tween 20, 5% DMSO). The bivalent analytes were subjected to single-cycle kinetics analyses (contact time of 120 s and dissociation time of 120 s) consisting of injections of the analytes at 0, 10, 50, 100, and 200 nM over the immobilised-LecA. The chip surface was regenerated by 5× injections of 100 μM 4-nitrophenyl-β-D-galactose (contact time of 120 s). KD determination was performed using BIACORE X100 evaluation software (version 2.0) by applying 1:1 binding model to fit the experimental data. • [1] H. E. Gottlieb, V. Kotlyar, A. Nudelman, J. Org. Chem. 1997, 62, 7512-7515. • [2] M. Seligman, J. Biol. Chem. 1952, 195, 239-249. • [3] S. T. Xue, W. Y. He, L. L. Ma, H. Q. Wang, B. Wang, G. H. Zheng, X. Y. Ji, T. Zhang, Y. H. Li, J. D. Jiang, et al., Molecules 2013, 18, 3789-3805. • [4] Y. Li, H. Mo, G. Lian, B. Yu, Carbohydr. Res. 2012, 363, 14-22. • [5] F. Yang, F. Xie, Y. Zhang, Y. Xia, W. Liu, F. Jiang, C. Lam, Y. Qiao, D. Xie, J. Li, et al., Bioorganic Med. Chem. Lett. 2017, 27, 2166-2170. Synthesis Schemes and Results of Biophysical Assays

[3] = molecular target: T1, LecA; assay: isothermal titration microcalorimetry (ITC); format: binding; conditions: Table 5, ITC, 25° C.
Experimental: Expression and purification of LecA as well as competitive binding by fluorescence polarization was performed as described by Joachim et al. (Org. Biomol. Chem. 2016). Microcalorimetry was performed using an ITC200 (GE Healthcare) at highest possible LecA concentration (typically 200-400 μM) in the cell and titration of ligand in the same buffer at 25° C.

[4] = IC50, Table 3, TBS/Ca2+ buffer in presence of 25% DMSO
[5] = FP IC50, Table 1, 20 μM LecA, 10 nM reporter ligand 8, TBS/Ca2+ buffer with 25% DMSO (**)
[6] = 100 μM LecA, 0.5 mM 35, TBS/Ca2+ buffer
[7] = 110 μM LecA, 1 mM 35, TBS/Ca2+ buffer

T1 sequence (Q05097 whole entry): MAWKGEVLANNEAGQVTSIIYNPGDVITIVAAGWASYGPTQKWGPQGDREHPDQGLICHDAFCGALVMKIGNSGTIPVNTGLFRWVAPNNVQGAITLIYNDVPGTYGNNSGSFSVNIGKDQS

Compound	koff [2]	IC50 [1, 5]	Kd [2]	other results
O=[N+]([O-])c1ccc(O[C@@H]2O[C@H](CO)[C@H](O)[C@H](O)[C@H]2O)cc1 [pNO2-Ph-β-Gal, reference compound]	–	–	–	IC50 [1, 4]: 40.4 ± 12.9 µM
O=C(CCc1ccc(O[C@@H]2O[C@H](CO)[C@H](O)[C@H](O)[C@H]2O)cc1)Nc1ccc(OCOc2ccc(NC(=O)CCc3ccc(O[C@@H]4O[C@H](CO)[C@H](O)[C@H](O)[C@H]4O)cc3)cc2)cc1 [Compound H30]	0.00462 ± 0.0002 s⁻¹	–	–	–
O=C(NN=Cc1ccc(Oc2ccc(C=NNC(=O)c3ccc(OC4OC(CO)C(O)C(O)C4O)cc3)cc2)cc1)c1ccc(OC2OC(CO)C(O)C(O)C2O)cc1 (stereo not drawn) [Compound A6p]	–	4.3 ± 2.3 µM	0.0217 ± 0.0076 µM	–
O=C(NN=Cc1ccc(OCCCCOc2ccc(C=NNC(=O)c3ccc(OC4OC(CO)C(O)C(O)C4O)cc3)cc2)cc1)c1ccc(OC2OC(CO)C(O)C(O)C2O)cc1 (stereo not drawn) [Compound E6p]	–	4.9 ± 1.4 µM	0.094 ± 0.0289 µM	–
O=C(CCc1ccc(O[C@@H]2O[C@H](CO)[C@H](O)[C@H](O)[C@H]2O)cc1)Nc1ccc(OCCOc2ccc(NC(=O)CCc3ccc(O[C@@H]4O[C@H](CO)[C@H](O)[C@H](O)[C@H]4O)cc3)cn2)nc1 [Compound M31]	0.00141 ± 5e-05 s⁻¹	–	–	IC50 [1, 4]: 4.1 ± 2.2 µM
O=C(NN=Cc1ccc(OCCOc2ccc(C=NNC(=O)c3ccc(OC4OC(CO)C(O)C(O)C4O)cc3)cc2)cc1)c1ccc(OC2OC(CO)C(O)C(O)C2O)cc1 (stereo not drawn) [Compound C6p]	–	3.8 ± 1.6 µM	0.0417 ± 0.0239 µM	–
O=C(NN=Cc1ccc(OCOc2ccc(C=NNC(=O)c3cccc(OC4OC(CO)C(O)C(O)C4O)c3)cc2)cc1)c1cccc(OC2OC(CO)C(O)C(O)C2O)c1 (stereo not drawn) [Compound B6m]	–	3.1 ± 2 µM	0.0143 ± 0.006 µM	–
O=C(/C=C/c1ccc(O[C@@H]2O[C@H](CO)[C@H](O)[C@H](O)[C@H]2O)cc1)Nc1ccc(Oc2ccc(NC(=O)/C=C/c3ccc(O[C@@H]4O[C@H](CO)[C@H](O)[C@H](O)[C@H]4O)cc3)cc2)cc1 [Compound G18]	0.00596 ± 0.00206 s⁻¹	–	–	–
O=C(CCc1ccc(O[C@@H]2O[C@H](CO)[C@H](O)[C@H](O)[C@H]2O)cc1)Nc1ccc(OCCCOc2ccc(NC(=O)CCc3ccc(O[C@@H]4O[C@H](CO)[C@H](O)[C@H](O)[C@H]4O)cc3)cc2)cc1 [Compound J30]	0.00345 ± 0.00013 s⁻¹	–	–	–
N.N.O=C(CCc1ccc(O[C@@H]2OC(CO)[C@H](O)C(O)C2O)cc1)Nc1ccc(CCc2ccc(NC(=O)CCc3ccc(O[C@@H]4OC(CO)[C@H](O)C(O)C4O)cc3)cc2S(=O)(=O)O)c(S(=O)(=O)O)c1 (stereo partly drawn) [Compound 35]	–	–	–	IC50 [1, 4]: 4 ± 2.4 µM; Kd [3, 6]: 0.081 µM; Kd [3, 7]: 0.146 µM; N (ITC stoichiometry) [3, 6]: 0.55; ΔH [3, 6]: -19.2 kcal/mol; ΔS [3, 6]: −31.8 cal/mol/deg; N (ITC stoichiometry) [3, 7]: 0.54; ΔH [3, 7]: -19.5 kcal/mol; ΔS [3, 7]: −34.3 cal/mol/deg
O=C(/C=C/c1ccc(O[C@@H]2O[C@H](CO)[C@H](O)[C@H](O)[C@H]2O)cc1)Nc1ccc(OCOc2ccc(NC(=O)/C=C/c3ccc(O[C@@H]4O[C@H](CO)[C@H](O)[C@H](O)[C@H]4O)cc3)cc2)cc1 [Compound H18]	0.00379 ± 0.00089 s⁻¹	–	–	–
O=C(NN=Cc1ccc(Oc2ccc(C=NNC(=O)c3cccc(OC4OC(CO)C(O)C(O)C4O)c3)cc2)cc1)c1cccc(OC2OC(CO)C(O)C(O)C2O)c1 (stereo not drawn) [Compound A6m]	–	4.1 ± 3 µM	0.0166 ± 0.002 µM	–
O=C(/C=C/c1ccc(O[C@@H]2O[C@H](CO)[C@H](O)[C@H](O)[C@H]2O)cc1)Nc1ccc(OCCOc2ccc(NC(=O)/C=C/c3ccc(O[C@@H]4O[C@H](CO)[C@H](O)[C@H](O)[C@H]4O)cc3)cc2)cc1 [Compound I18]	0.00249 ± 0.00028 s⁻¹	–	–	–
O=C(/C=C/c1ccc(O[C@@H]2O[C@H](CO)[C@H](O)[C@H](O)[C@H]2O)cc1)Nc1ccc(OCCCOc2ccc(NC(=O)/C=C/c3ccc(O[C@@H]4O[C@H](CO)[C@H](O)[C@H](O)[C@H]4O)cc3)cn2)nc1 [Compound N32]	–	–	–	IC50 [1, 4]: 4.3 ± 2 µM
O=C(NCc1cn(CCOCCOCCOCCNC(=S)Nc2ccc3c(c2)C(=O)OC32c3ccc(O)cc3Oc3cc(O)ccc32)nn1)c1ccc(C(Oc2ccc(/C=N/NC(=O)c3ccc(O[C@@H]4OC(CO)[C@H](O)C(O)C4O)cc3)cc2)Oc2ccc(/C=N/NC(=O)c3ccc(O[C@@H]4OC(CO)[C@H](O)C(O)C4O)cc3)cc2)cc1 (stereo partly drawn) [Compound 13]	0.00593 ± 0.00051 s⁻¹	–	0.0372 ± 0.0029 µM	kon ([2]; Table 2, SPR, three independent experiments): 160 ± 19 ×10^3/Ms
NNC(=O)c1ccc(O[C@@H]2OC(CO)[C@H](O)C(O)C2O)cc1 (stereo partly drawn) [reference compound]	–	30.3 µM	–	IC50 ([1]; FP IC50, Table 1, 20 μM LecA, 10 nM reporter ligand 8, TBS/Ca2+ buffer with 4% DMSO (*)): 22.6 ± 8.7 µM
O=C(NN=Cc1ccc(OCCOc2ccc(C=NNC(=O)c3cccc(OC4OC(CO)C(O)C(O)C4O)c3)cc2)cc1)c1cccc(OC2OC(CO)C(O)C(O)C2O)c1 (stereo not drawn) [Compound C6m]	–	2 ± 1.9 µM	0.0149 ± 0.0119 µM	–
O=C(CCc1ccc(O[C@@H]2O[C@H](CO)[C@H](O)[C@H](O)[C@H]2O)cc1)Nc1ccc(Oc2ccc(NC(=O)CCc3ccc(O[C@@H]4O[C@H](CO)[C@H](O)[C@H](O)[C@H]4O)cc3)cc2)cc1 [Compound G30]	0.00349 ± 8e-05 s⁻¹	–	–	–
O=C(NN=Cc1ccc(OCCCOc2ccc(C=NNC(=O)c3ccc(OC4OC(CO)C(O)C(O)C4O)cc3)cc2)cc1)c1ccc(OC2OC(CO)C(O)C(O)C2O)cc1 (stereo not drawn) [Compound D6p]	–	3.6 ± 1.7 µM	0.05 ± 0.0194 µM	–
O=C(NN=Cc1ccc(OCOc2ccc(C=NNC(=O)c3ccc(OC4OC(CO)C(O)C(O)C4O)cc3)cc2)cc1)c1ccc(OC2OC(CO)C(O)C(O)C2O)cc1 (stereo not drawn) [Compound B6p]	–	3.7 ± 1.8 µM	0.0305 ± 0.028 µM	–
O=C(CCc1ccc(O[C@@H]2O[C@H](CO)[C@H](O)[C@H](O)[C@H]2O)cc1)Nc1ccc(OCCCCOc2ccc(NC(=O)CCc3ccc(O[C@@H]4O[C@H](CO)[C@H](O)[C@H](O)[C@H]4O)cc3)cc2)cc1 [Compound K30]	0.00366 ± 0.00042 s⁻¹	–	–	–
O=C(CCc1ccc(O[C@@H]2O[C@H](CO)[C@H](O)[C@H](O)[C@H]2O)cc1)Nc1ccc(OCCCCOc2ccc(NC(=O)CCc3ccc(O[C@@H]4O[C@H](CO)[C@H](O)[C@H](O)[C@H]4O)cc3)cn2)nc1 [Compound O31]	–	–	–	IC50 [1, 4]: 3.2 ± 1.8 µM
O=C(CCc1ccc(O[C@@H]2O[C@H](CO)[C@H](O)[C@H](O)[C@H]2O)cc1)Nc1ccc(OCCCOc2ccc(NC(=O)CCc3ccc(O[C@@H]4O[C@H](CO)[C@H](O)[C@H](O)[C@H]4O)cc3)cn2)nc1 [Compound N31]	–	–	–	IC50 [1, 4]: 2.7 ± 1.1 µM
O=C(/C=C/c1ccc(O[C@@H]2O[C@H](CO)[C@H](O)[C@H](O)[C@H]2O)cc1)Nc1ccc(OCCCOc2ccc(NC(=O)/C=C/c3ccc(O[C@@H]4O[C@H](CO)[C@H](O)[C@H](O)[C@H]4O)cc3)cc2)cc1 [Compound J18]	0.00251 ± 0.00022 s⁻¹	–	–	–
O=C(/C=C/c1ccc(O[C@@H]2O[C@H](CO)[C@H](O)[C@H](O)[C@H]2O)cc1)Nc1ccc(OCCOc2ccc(NC(=O)/C=C/c3ccc(O[C@@H]4O[C@H](CO)[C@H](O)[C@H](O)[C@H]4O)cc3)cn2)nc1 [Compound M32]	0.00165 ± 0.00012 s⁻¹	–	–	IC50 [1, 4]: 7.5 ± 3.7 µM
O=C(NN=Cc1ccc(OCCCOc2ccc(C=NNC(=O)c3cccc(OC4OC(CO)C(O)C(O)C4O)c3)cc2)cc1)c1cccc(OC2OC(CO)C(O)C(O)C2O)c1 (stereo not drawn) [Compound D6m]	–	–	0.0659 ± 0.0062 µM	–
O=C(NN=Cc1ccc(OCCCCOc2ccc(C=NNC(=O)c3cccc(OC4OC(CO)C(O)C(O)C4O)c3)cc2)cc1)c1cccc(OC2OC(CO)C(O)C(O)C2O)c1 (stereo not drawn) [Compound E6m]	–	6.3 ± 6.4 µM	0.0257 ± 0.0192 µM	–
O=C(CCc1ccc(O[C@@H]2O[C@H](CO)[C@H](O)[C@H](O)[C@H]2O)cc1)Nc1ccc(OCCOc2ccc(NC(=O)CCc3ccc(O[C@@H]4O[C@H](CO)[C@H](O)[C@H](O)[C@H]4O)cc3)cc2)cc1 [Compound I30]	0.00284 ± 6e-05 s⁻¹	–	–	–
O=C(/C=C/c1ccc(O[C@@H]2O[C@H](CO)[C@H](O)[C@H](O)[C@H]2O)cc1)Nc1ccc(OCCCCOc2ccc(NC(=O)/C=C/c3ccc(O[C@@H]4O[C@H](CO)[C@H](O)[C@H](O)[C@H]4O)cc3)cc2)cc1 [Compound K18]	0.00388 ± 0.00043 s⁻¹	–	–	–
